Some test systems named below: A549; ACHN; CAKI-1; COLO 205; HOP-62; HT-29; KM12; M14; MOLT-4; Malme-3M; NCI-H226; OVCAR-3; SK-MEL-28; T47D; HL-60; LOX IMVI; RXF 393; SR.
What all share (test): DTP human tumour cell line panel, 48 h

“And” between values parts separate entries of the source, which are not always exact repeats. Equal entries are not always repeated.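 Test compounds were applied to cells in 96-well plates for 48 hours at 5 doses. GI50 = concentration required for 50% inhibition of growth.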 The source made the active and inactive calls. Rule as the data show it: active = GI50 up to about 1.1 µM and inactive = higher.

Results on 12 molecules are retold here after ChEMBL document CHEMBL1201862, “PubChem BioAssay data set” (2004).

The term GI50 denotes the concentration that inhibits growth by half. Consider `CCOc1ccc(N/C(=C(/C(Cl)=C(/Cl)NCCN)[N+](=O)[O-])n2nnc3ccccc32)cc1`, for which the GI50 in the assay on A549 is > 100 µM (inactive); in the assay on ACHN it was 17.9 µM (inactive); in the assay on CAKI-1, 17.2 µM (inactive); with COLO 205 it was 15.6 µM (inactive); with HOP-62 it was 90.8 µM (inactive); with HT-29 it was 33.3 µM (inactive). The GI50 with KM12 is 30.8 µM (inactive); in the assay on M14, 43.9 µM (inactive); in the assay on MOLT-4, 16.5 µM (inactive); in the assay on Malme-3M, 14.5 µM (inactive); with NCI-H226, 86.1 µM (inactive); in the assay with OVCAR-3, 13 µM (inactive). The GI50 in the assay on SK-MEL-28 was 27.9 µM (inactive); in the assay with T47D, 32.3 µM (inactive).
For the molecule `CCOC(=O)c1c(OCC)[nH]c(=O)c(C(c2cccs2)c2c(O)c(C(=O)OCC)c(OCC)[nH]c2=O)c1O`, the GI50 in the assay on A549 is 14.5 µM (inactive); with ACHN, 12.8 µM (inactive); in the assay on CAKI-1, 18 µM (inactive); in the assay on COLO 205 it was 17.3 µM (inactive); with HL-60, 13.7 µM (inactive); with HOP-62 it was 10.4 µM (inactive). The GI50 was 16.1 µM (inactive) in the assay on HT-29; 17.9 µM (inactive) in the assay with KM12; 12.6 µM (inactive) in the assay on LOX IMVI; 16.1 µM (inactive) in the assay with M14; 6.47 µM (inactive) in the assay on MOLT-4; 8.36 µM (inactive) in the assay on Malme-3M. Moreover, the GI50 in the assay on NCI-H226 is 3.9 µM (inactive); in the assay on OVCAR-3 it was 11.6 µM (inactive); with RXF 393, 1.7 µM (inactive); in the assay with SK-MEL-28, 13.1 µM (inactive); in the assay on T47D it was 0.0989 µM (active).
On to `CNc1nc(N)nc(Nc2ccc(I)cc2)c1N=O`, for which the GI50 in the assay on A549 is > 100 µM (inactive); in the assay with ACHN it was > 100 µM (inactive); with COLO 205, 36.4 µM (inactive); in the assay on HL-60, 62.4 µM (inactive); in the assay on HOP-62 it was > 100 µM (inactive); in the assay with HT-29 it was 24 µM (inactive). Besides, the GI50 is > 100 µM (inactive) with KM12; > 100 µM (inactive) in the assay on LOX IMVI; 78.5 µM (inactive) in the assay with MOLT-4; > 100 µM (inactive) in the assay on Malme-3M; 61 µM (inactive) in the assay on OVCAR-3; 57.4 µM (inactive) in the assay on RXF 393. Also, the GI50 in the assay with SK-MEL-28 and in the assay with SR was > 100 µM (inactive) each time.
Take `CC(=O)OCC1OC(n2c(N)c(C#N)c(C)c(C#N)c2=S)C(OC(C)=O)C(OC(C)=O)C1OC(C)=O` (configuration not stated): the GI50 with A549, with ACHN, in the assay with CAKI-1, with COLO 205, in the assay with HOP-62 and in the assay with HT-29 was > 100 µM (inactive) throughout. Further, the GI50 in the assay on KM12 was > 100 µM (inactive); with LOX IMVI, > 100 µM (inactive); with M14, 46.3 µM (inactive) and 80.9 µM (inactive); with MOLT-4, > 100 µM (inactive); with Malme-3M, > 100 µM (inactive) and 78.5 µM (inactive); with NCI-H226, > 100 µM (inactive). Besides, the GI50 in the assay on OVCAR-3, in the assay on RXF 393, in the assay with SK-MEL-28 and with T47D was > 100 µM (inactive) throughout.
In the case of `CC(C)CCNC(=O)c1ccc(CNC(=O)/C=C/c2csc(-c3ccccc3)n2)cc1`, the GI50 with A549 is 40.1 µM (inactive); in the assay with ACHN, 52.7 µM (inactive); in the assay on CAKI-1, 18.7 µM (inactive); in the assay on COLO 205 it was > 100 µM (inactive); in the assay with HOP-62, 17.9 µM (inactive); with HT-29, 31.1 µM (inactive). Besides, the GI50 with KM12 was > 100 µM (inactive); with LOX IMVI it was > 100 µM (inactive); with M14, > 100 µM (inactive); with MOLT-4 it was > 100 µM (inactive); with Malme-3M, 29.9 µM (inactive); in the assay on NCI-H226 it was 33.3 µM (inactive). The GI50 with OVCAR-3 is > 100 µM (inactive); with RXF 393, 17.3 µM (inactive); with SK-MEL-28, 57.7 µM (inactive); in the assay with T47D, 33.2 µM (inactive).
For the molecule `CC(C)N1C=[N+](C(C)C)CC1`, the GI50 in the assay with A549, with ACHN, in the assay on CAKI-1, in the assay with COLO 205, in the assay on HOP-62 and in the assay on HT-29 was > 100 µM (inactive) throughout. Besides, the GI50 in the assay with KM12, in the assay with LOX IMVI, in the assay with M14, with Malme-3M, in the assay on NCI-H226 and in the assay with OVCAR-3 was > 100 µM (inactive) each time. In addition, the GI50 in the assay on RXF 393, in the assay on SK-MEL-28 and with T47D was > 100 µM (inactive) in each case.
On to `Cc1nc(C(N)=S)sc1/C(CC(=O)C(=O)Nc1cccc2ccc(O)cc12)=N\NC(=O)c1ccncc1`, for which the GI50 with A549 is > 100 µM (inactive); in the assay on ACHN, > 100 µM (inactive); in the assay with CAKI-1 it was > 100 µM (inactive); in the assay on COLO 205 it was 49.2 µM (inactive); in the assay on HL-60 it was 25.6 µM (inactive); in the assay with HOP-62 it was 37.5 µM (inactive). Also, the GI50 in the assay with HT-29 is 37.8 µM (inactive); in the assay with KM12, > 100 µM (inactive); in the assay with LOX IMVI, 42.2 µM (inactive); in the assay with M14 it was > 100 µM (inactive); in the assay with MOLT-4, 28.2 µM (inactive); with NCI-H226 it was 61.1 µM (inactive). The GI50 in the assay with OVCAR-3 was 34 µM (inactive); in the assay with RXF 393, > 100 µM (inactive); with SK-MEL-28 it was 74.8 µM (inactive).
Take `C=C1C(=O)O[C@@H]2C[C@@]3(C)CC(=O)C=C(C)[C@@H]3C[C@H]12`: the GI50 in the assay with A549 was 29.6 µM (inactive); in the assay with ACHN it was 2.69 µM (inactive); in the assay on CAKI-1, 8.36 µM (inactive); in the assay on COLO 205, 3.37 µM (inactive); in the assay on HL-60 it was 1.71 µM (inactive); in the assay on HOP-62, 18 µM (inactive). The GI50 with HT-29 was 6.14 µM (inactive); in the assay with KM12, 18.6 µM (inactive); in the assay on LOX IMVI, 13.9 µM (inactive); in the assay with M14 it was 13.5 µM (inactive); in the assay with MOLT-4, 3.04 µM (inactive); in the assay with Malme-3M it was 5.98 µM (inactive). For the same molecule, the GI50 in the assay on NCI-H226 is 36.8 µM (inactive); in the assay with OVCAR-3, 6.15 µM (inactive); with RXF 393 it was 3.94 µM (inactive); with SK-MEL-28, 5.73 µM (inactive); in the assay on T47D it was 11.2 µM (inactive).
For `O=C(CSCC(=O)N/N=C\c1ccccc1F)N/N=C\c1ccccc1F`, the GI50 with A549, with ACHN, with CAKI-1, with COLO 205, in the assay with HL-60 and in the assay on HT-29 was > 100 µM (inactive) each time. The GI50 in the assay with KM12 was 92.9 µM (inactive); in the assay on LOX IMVI it was > 100 µM (inactive); in the assay with M14 it was > 100 µM (inactive); in the assay with MOLT-4 it was 63.2 µM (inactive); with Malme-3M it was > 100 µM (inactive); in the assay on NCI-H226 it was 87.5 µM (inactive). Also, the GI50 is 27 µM (inactive) with OVCAR-3, > 100 µM (inactive) in the assay with RXF 393, > 100 µM (inactive) in the assay with SK-MEL-28 and 77.6 µM (inactive) in the assay with T47D.
As to `COC(=O)[C@@]12CCCC(=O)[C@@H]1[C@H]1CCCC[C@H]12`, the GI50 with A549, in the assay with ACHN, in the assay on CAKI-1, with COLO 205, with HOP-62 and in the assay on HT-29 was > 100 µM (inactive) in each case. Further, the GI50 in the assay on KM12 was > 100 µM (inactive); in the assay on LOX IMVI, > 100 µM (inactive); in the assay with M14, > 100 µM (inactive); in the assay on MOLT-4, 30.6 µM (inactive); in the assay with Malme-3M it was > 100 µM (inactive); with NCI-H226 it was > 100 µM (inactive). Also, the GI50 with OVCAR-3, with RXF 393, in the assay with SK-MEL-28 and with SR was > 100 µM (inactive) in each case.
As for `C[n+]1c(-c2ccccc2)cc2/c(=C\c3ccc([N+](=O)[O-])cc3)c3ccccc3n21`, the GI50 is 2.15 µM (inactive) in the assay on A549; 3.1 µM (inactive) in the assay on ACHN; 15.8 µM (inactive) in the assay on CAKI-1; 0.532 µM (active) in the assay on COLO 205; 0.764 µM (active) in the assay on HL-60; 4.84 µM (inactive) in the assay with HOP-62. The 50% growth inhibitory concentration (GI50) in the assay on HT-29 was 0.957 µM (active); in the assay with KM12, 3.29 µM (inactive); with LOX IMVI, 2.63 µM (inactive); in the assay on M14, 5.24 µM (inactive); with MOLT-4, 0.966 µM (active); in the assay with NCI-H226, 2.65 µM (inactive). Further, the GI50 in the assay on OVCAR-3 is 3.06 µM (inactive); with RXF 393, 4.45 µM (inactive); in the assay with SK-MEL-28 it was 7.41 µM (inactive).
With `Cc1ccc(C(=O)Nc2ccc(CP(=O)(O)O)cc2)cc1NC(=O)Nc1cc(C(=O)Nc2ccc(CP(=O)(O)O)cc2)ccc1C`, the GI50 in the assay on A549, in the assay with CAKI-1, in the assay with COLO 205, in the assay on HL-60, in the assay on HOP-62 and with HT-29 was > 100 µM (inactive) throughout. Also, the GI50 in the assay with KM12, in the assay with LOX IMVI, in the assay with M14, in the assay on MOLT-4, in the assay with Malme-3M and in the assay on NCI-H226 was > 100 µM (inactive) in each case. The GI50 in the assay with OVCAR-3, in the assay on RXF 393, in the assay on SK-MEL-28 and in the assay with T47D was > 100 µM (inactive) throughout.
